Values quoted from earlier work, collected in patent publication US20120270995A1, “AQUEOUS FORMULATIONS INCLUDING DIOXOLANES AS COUPLING AGENTS” (RHODIA POLIAMIDA E ESPECIALIDADES LTDA, priority 2009, published 2012).
Read-outs that look alike come from different tables or passages of the source.

Key:
[1] = in vivo
[2] = in vivo; remark: listed apart in the source
[3] = CMR = carcinogenic/mutagenic/reproductively toxic
[4] = not given; remark: listed apart in the source
[5] = in vivo; remark: listed apart in the source

| Compound | Vapour point (20° C.) | Skin irritation [1] | Eye irritation [2] | CMR [3] | Acute oral toxicity [4] | Vapour point (25° C.) | Aquatic toxicity [5] | Vapour point (37.8° C.) |
| --- | --- | --- | --- | --- | --- | --- | --- | --- |
| CCCCOCCO [Butylglycol] | 0.8 mmHg | – | – | – | – | – | – | – |
| CCOCCO [Ethylglycol] | – | moderate | weak | cat. 2 | 3000 mg/kg | 5.3 mmHg | 5000 mg/L | – |
| CC1(C)OCC(CO)O1 (stereo not drawn) [Solketal, 2,2-Dimethyl-1,3-dioxolane-4-methanol] | – | moderate | moderate | – | 7000 mg/kg | – | >1000 mg/L | 52.0 mmHg |
| Methylglycol | 6.2 mmHg | weak | severe | – | 18 000 mg/kg | – | 18 000 mg/l | – |
| CCOCCOC(C)=O [Ethylglycol acetate] | 2.0 mmHg | severe | severe | cat. 2 | 2900 mg/kg | – | 244.66 mg/L | – |
| CCOCCOCCO [Ethyldiglycol] | – | severe | severe | – | 5500 mg/kg | 0.1 mmHg | 13 400 mg/l | – |
| CCCCOCCOC(C)=O [Butylglycol acetate] | 0.4 mmHg | weak | weak | – | 2360 mg/kg | – | 103.17 mg/L | – |
